# Laboratory results from ChEMBL document CHEMBL1275522, “Antimicrobial studies with the Pseudomonas aeruginosa two-allele library require caution” (2008).
# Assays:
# Type in all cases: functional
# Pseudomonas aeruginosa [1] = assay: Antimicrobial against Pseudomonas aeruginosa 30848 harboring phoU allele by broth dilution method
# Pseudomonas aeruginosa [2] = assay: Antimicrobial against Pseudomonas aeruginosa 32455 harboring phzS allele by broth dilution method
# Pseudomonas aeruginosa [3] = assay: Antimicrobial against Pseudomonas aeruginosa 3208 harboring phzM allele by broth dilution method
# Pseudomonas aeruginosa [4] = assay: Antimicrobial against Pseudomonas aeruginosa 3434 by broth dilution method
# Pseudomonas aeruginosa [5] = assay: Antimicrobial against Pseudomonas aeruginosa 3894 by broth dilution method
# Pseudomonas aeruginosa [6] = assay: Antimicrobial against Pseudomonas aeruginosa 1494 harboring phnA allele by broth dilution method
# Pseudomonas aeruginosa [7] = assay: Antimicrobial against Pseudomonas aeruginosa 40198 harboring nirJ allele by broth dilution method
# Pseudomonas aeruginosa [8] = assay: Antimicrobial against Pseudomonas aeruginosa 8564 harboring pyrX allele by broth dilution method
# Pseudomonas aeruginosa [9] = assay: Antimicrobial against Pseudomonas aeruginosa 9256 harboring ybhO allele by broth dilution method
# Pseudomonas aeruginosa [10] = assay: Antimicrobial against Pseudomonas aeruginosa 8666 by broth dilution method
# Pseudomonas aeruginosa [11] = assay: Antimicrobial against Pseudomonas aeruginosa 3465 harboring tsaA allele by broth dilution method
# Pseudomonas aeruginosa [12] = assay: Antimicrobial against Pseudomonas aeruginosa 312 harboring PBPP allele by broth dilution method
# Pseudomonas aeruginosa [13] = assay: Antimicrobial against Pseudomonas aeruginosa 46396 harboring katA allele by broth dilution method
# Pseudomonas aeruginosa [14] = assay: Antimicrobial against Pseudomonas aeruginosa PAO1 by broth dilution method
# Pseudomonas aeruginosa [15] = assay: Antimicrobial against Pseudomonas aeruginosa 33410 harboring phoU allele by broth dilution method
# Pseudomonas aeruginosa [16] = assay: Antimicrobial against Pseudomonas aeruginosa PAO1 by Etest method
# Pseudomonas aeruginosa [17] = assay: Antimicrobial against Pseudomonas aeruginosa 33410 harboring phoU allele by Etest method
# Pseudomonas aeruginosa [18] = assay: Antimicrobial against Pseudomonas aeruginosa 30848 harboring phoU allele by Etest method
# Pseudomonas aeruginosa [19] = assay: Antimicrobial against Pseudomonas aeruginosa 32455 harboring phzS allele by Etest method
# Pseudomonas aeruginosa [20] = assay: Antimicrobial against Pseudomonas aeruginosa 3208 harboring phzM allele by Etest method
# Pseudomonas aeruginosa [21] = assay: Antimicrobial against Pseudomonas aeruginosa 3434 by Etest method
# Pseudomonas aeruginosa [22] = assay: Antimicrobial against Pseudomonas aeruginosa 3894 by Etest method
# Pseudomonas aeruginosa [23] = assay: Antimicrobial against Pseudomonas aeruginosa 1494 harboring phnA allele by Etest method
# Pseudomonas aeruginosa [24] = assay: Antimicrobial against Pseudomonas aeruginosa 40198 harboring nirJ allele by Etest method
# Pseudomonas aeruginosa [25] = assay: Antimicrobial against Pseudomonas aeruginosa 8564 harboring pyrX allele by Etest method
# Pseudomonas aeruginosa [26] = assay: Antimicrobial against Pseudomonas aeruginosa 9256 harboring ybhO allele by Etest method
# Pseudomonas aeruginosa [27] = assay: Antimicrobial against Pseudomonas aeruginosa 8666 by Etest method
# Pseudomonas aeruginosa [28] = assay: Antimicrobial against Pseudomonas aeruginosa 3465 harboring tsaA allele by Etest method
# Pseudomonas aeruginosa [29] = assay: Antimicrobial against Pseudomonas aeruginosa 312 harboring PBPP allele by Etest method
# Pseudomonas aeruginosa [30] = assay: Antimicrobial against Pseudomonas aeruginosa 46396 harboring katA allele by Etest method
SMILES,MIC (Pseudomonas aeruginosa [1]) [µg/mL],MIC (Pseudomonas aeruginosa [2]) [µg/mL],MIC (Pseudomonas aeruginosa [3]) [µg/mL],MIC (Pseudomonas aeruginosa [4]) [µg/mL],MIC (Pseudomonas aeruginosa [5]) [µg/mL],MIC (Pseudomonas aeruginosa [6]) [µg/mL],MIC (Pseudomonas aeruginosa [7]) [µg/mL],MIC (Pseudomonas aeruginosa [8]) [µg/mL],MIC (Pseudomonas aeruginosa [9]) [µg/mL],MIC (Pseudomonas aeruginosa [10]) [µg/mL],MIC (Pseudomonas aeruginosa [11]) [µg/mL],MIC (Pseudomonas aeruginosa [12]) [µg/mL],MIC (Pseudomonas aeruginosa [13]) [µg/mL],MIC (Pseudomonas aeruginosa [14]) [µg/mL],MIC (Pseudomonas aeruginosa [15]) [µg/mL],MIC (Pseudomonas aeruginosa [16]) [µg/mL],MIC (Pseudomonas aeruginosa [17]) [µg/mL],MIC (Pseudomonas aeruginosa [18]) [µg/mL],MIC (Pseudomonas aeruginosa [19]) [µg/mL],MIC (Pseudomonas aeruginosa [20]) [µg/mL],further results
NC[C@H]1O[C@H](O[C@H]2[C@H](O)[C@@H](O[C@H]3O[C@H](CO)[C@@H](O)[C@H](N)[C@H]3O)[C@H](N)C[C@@H]2N)[C@H](N)C[C@@H]1O [TOBRAMYCIN],0.4,0.4,0.2,0.4,0.4,0.4,0.4,0.2,0.4,0.2,0.2,0.2,0.2,0.2,0.4,–,–,–,–,–,–
O=C(O)c1cn(C2CC2)c2cc(N3CCNCC3)c(F)cc2c1=O [CIPROFLOXACIN],0.2,0.1,0.1,0.05,0.05,0.1,0.1,0.1,0.1,0.1,0.1,0.1,0.1,0.8,0.05,–,–,–,–,–,–
O=C(N[C@H](CO)[C@H](O)c1ccc([N+](=O)[O-])cc1)C(Cl)Cl [CHLORAMPHENICOL],200,12.5,12.5,25,12.5,12.5,12.5,12.5,12.5,12.5,12.5,12.5,12.5,800,12.5,–,–,–,–,–,–
C[C@@H](O)[C@H]1C(=O)N2C(C(=O)O)=C(S[C@@H]3CN[C@H](C(=O)N(C)C)C3)[C@H](C)[C@H]12 [MEROPENEM],–,–,–,–,–,–,–,–,–,–,–,–,–,–,–,0.38,0.38,0.5,0.25,0.38,MIC (Pseudomonas aeruginosa [21]): 0.38 µg/mL; MIC (Pseudomonas aeruginosa [22]): 0.19 µg/mL; MIC (Pseudomonas aeruginosa [23]): 0.38 µg/mL; MIC (Pseudomonas aeruginosa [24]): 0.25 µg/mL; MIC (Pseudomonas aeruginosa [25]): 0.38 µg/mL; MIC (Pseudomonas aeruginosa [26]): 0.25 µg/mL; MIC (Pseudomonas aeruginosa [27]): 0.25 µg/mL; MIC (Pseudomonas aeruginosa [28]): 0.25 µg/mL; MIC (Pseudomonas aeruginosa [29]): 0.25 µg/mL; MIC (Pseudomonas aeruginosa [30]): 0.25 µg/mL
CC(C)(O/N=C(\C(=O)N[C@@H]1C(=O)N2C(C(=O)[O-])=C(C[n+]3ccccc3)CS[C@H]12)c1csc(N)n1)C(=O)O [CEFTAZIDIME],–,–,–,–,–,–,–,–,–,–,–,–,–,–,–,2,1.5,3,2,2,MIC (Pseudomonas aeruginosa [21]): 2.5 µg/mL; MIC (Pseudomonas aeruginosa [22]): 2.5 µg/mL; MIC (Pseudomonas aeruginosa [23]): 1.5 µg/mL; MIC (Pseudomonas aeruginosa [24]): 1.5 µg/mL; MIC (Pseudomonas aeruginosa [25]): 1.5 µg/mL; MIC (Pseudomonas aeruginosa [26]): 2 µg/mL; MIC (Pseudomonas aeruginosa [27]): 2 µg/mL; MIC (Pseudomonas aeruginosa [28]): 2 µg/mL; MIC (Pseudomonas aeruginosa [29]): 2 µg/mL; MIC (Pseudomonas aeruginosa [30]): 2 µg/mL
CCn1cc(C(=O)O)c(=O)c2cc3c(cc21)OCO3 [OXOLINIC ACID],16,4,4,4,8,8,8,8,8,8,4,8,8,64,4,–,–,–,–,–,–
